Five compounds from article PMC6315989, “Red-Shifted FRET Biosensors for High-Throughput Fluorescence Lifetime Screening” (Biosensors, 2018) can be followed below.

Where “and” joins values, the source holds several entries; their conditions need not be identical. Equal entries are not always repeated.

The target of assay [1] is T1, human cardiac calcium pump (SERCA2a) (Homo sapiens, UniProt P16615). Nature of the assay: 2CS (O/M, OFP/MFP) red-shifted FRET fluorescence lifetime biosensor in living HEK293 cells. The assay is classed as cell-based. On the procedure: (§1) HEK293 (originally derived from human embryonic kidney) cells were maintained in phenol red-free DMEM from Gibco (Waltham, MA, USA) supplemented with 2 mM GlutaMAX (Gibco), 10% fetal bovine serum (FBS), from Atlanta Biologicals (Lawrenceville, GA, USA), and 1 IU/mL penicillin/streptomycin (Gibco) and grown at 37 °C with 5% CO2. HEK293 cell lines were used to generate stable clones overexpressing the FRET-based biosensors (containing both donor and acceptor) and corresponding donor-only and acceptor-only control cell lines. Three days prior to screening, the stable cell lines were expanded into T225 flasks from Corning Inc. (Corning, NY, USA). On each day of screening and FRET hit retesting, approximately 30 million cells were harvested by treatment of Tryple from Invitrogen (Carlsbad, CA, USA), washed three times in phosphate buffer solution (PBS) with no magnesium or calcium from Thermo Scientific (Waltham, MA, USA) by centrifugation at 300 g, filtered using 70 µm cell strainers (Corning), and diluted to 10^6 cells/mL using an automated countess cell counter (Invitrogen). On each day of screening, cell viability was assessed using the trypan blue assay and found to be above 95% viable. After resuspension and dilution in PBS, the cells were continuously and gently stirred using a magnetic stir bar at room temperature, keeping the cells in suspension and evenly distributed to avoid clumping. Subcellular localization of each biosensor was evaluated using an Olympus FluoView FV1000 IX2 (Tokyo, Japan) Inverted Confocal microscope with FLIM detector. GFP and RFP signals were assessed using 473 and 561 nm laser excitation, respectively. Cell nuclei were identified by staining with DAPI, using 405 nm laser excitation.
T1 sequence (P16615 1-997 isoform P16615-2): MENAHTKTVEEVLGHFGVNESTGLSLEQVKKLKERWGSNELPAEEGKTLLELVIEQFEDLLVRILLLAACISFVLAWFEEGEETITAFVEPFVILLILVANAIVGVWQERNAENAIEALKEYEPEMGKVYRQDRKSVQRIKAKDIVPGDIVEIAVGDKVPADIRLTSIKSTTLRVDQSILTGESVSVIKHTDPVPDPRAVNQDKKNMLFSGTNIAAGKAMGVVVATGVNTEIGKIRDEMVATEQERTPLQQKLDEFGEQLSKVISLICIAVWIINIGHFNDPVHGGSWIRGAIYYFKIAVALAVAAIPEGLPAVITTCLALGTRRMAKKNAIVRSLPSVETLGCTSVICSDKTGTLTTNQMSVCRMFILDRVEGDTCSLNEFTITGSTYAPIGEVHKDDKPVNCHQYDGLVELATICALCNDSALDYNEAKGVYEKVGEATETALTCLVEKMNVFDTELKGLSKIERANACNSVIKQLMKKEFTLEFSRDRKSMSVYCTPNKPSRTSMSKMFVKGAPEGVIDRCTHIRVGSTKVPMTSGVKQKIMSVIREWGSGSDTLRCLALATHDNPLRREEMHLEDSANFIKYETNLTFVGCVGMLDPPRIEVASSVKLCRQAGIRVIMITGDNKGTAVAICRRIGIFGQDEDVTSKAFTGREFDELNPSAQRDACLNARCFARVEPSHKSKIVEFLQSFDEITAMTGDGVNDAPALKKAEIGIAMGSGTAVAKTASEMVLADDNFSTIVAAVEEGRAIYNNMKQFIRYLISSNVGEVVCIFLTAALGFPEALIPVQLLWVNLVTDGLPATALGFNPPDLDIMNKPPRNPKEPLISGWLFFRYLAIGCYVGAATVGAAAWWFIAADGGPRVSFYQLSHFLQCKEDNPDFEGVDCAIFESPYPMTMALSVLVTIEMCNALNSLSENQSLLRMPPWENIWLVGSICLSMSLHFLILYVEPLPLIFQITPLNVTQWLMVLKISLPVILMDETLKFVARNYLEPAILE
(§2) Cells and compound mixtures were dispensed into 1536-well flat, black-bottom polypropylene plates from Greiner (Kremsmünste, Austria). Compounds were dispensed using either an automated Echo acoustic liquid dispenser from Labcyte (Sunnyvale, CA, USA) or a Mosquito liquid dispenser from TTP Labtech (Melbourn, UK). Cells were dispensed at room temperature using a Multidrop Combi liquid dispenser from Thermo (Pittsburg, PA, USA), at a density of 10^6 cells/mL, either 30 or 120 min before screening. For screening, cells were dispensed into assay plates containing the 1280-compund LOPAC (Library of Pharmacologically Active Compounds, from Invitrogen), dissolved in DMSO. The final DMSO concentration was <1%, and control wells were prepared containing cells and matching [DMSO]. The same methods were applied for subsequent FRET testing of the reproducible hits identified in the pilot screen. Reproducible FRET hits for retesting were purchased from Tocris (Minneapolis, MN, USA) or Invitrogen (Carlsbad, CA, USA), depending on their availability.
(§3) An in-depth description of the fluorescence instrumentation has previously been described in detail and can be found in our previous publication. The current instrument has been updated to a high-density microplate format (1536 wells, 5 μL/well), acquiring data from a full plate in less than three minutes with lifetime measurement precision (standard deviation/mean) of 1% or better. Fluorescence decay waveforms (with upper-end specifications of […] resolution, 640 data points over 128 ns range) for FLT determination were detected directly as previously described, except that two different light sources were used for GFP and OFP. In both cases, fluorescence was excited with a pulsed microchip laser producing nanosecond-wide pulses. As previously described for GFP, a 473 nm laser (Bright Solutions, Via degli Artigiani, Italy) was used, delivering pulses of ~1 μJ energy at a 5 kHz repetition rate. For OFP, a 532 nm laser (Teem Photonics SNG-20F-100, Meylan, France) was used, delivering pulses of ~0.3 μJ energy at a 20 kHz repetition rate. […]

Assay [2] has as its target T1, human cardiac calcium pump (SERCA2a). Put plainly: 2CS (G/R, GFP/RFP) FRET fluorescence lifetime biosensor in living HEK293 cells. The arrangement: expressed in transfected cells. The assay is classed as cell-based. On the procedure: as §1, §2, §3
The next assay deals with T2, SERCA1a (Oryctolagus cuniculus, UniProt P04191).
T2 construct: sarcoplasmic reticulum vesicles prepared from rabbit skeletal muscle (SERCA1a); from tissue; host or cells: rabbit skeletal muscle sarcoplasmic reticulum vesicles
T2 sequence (P04191 1-994 isoform P04191-2): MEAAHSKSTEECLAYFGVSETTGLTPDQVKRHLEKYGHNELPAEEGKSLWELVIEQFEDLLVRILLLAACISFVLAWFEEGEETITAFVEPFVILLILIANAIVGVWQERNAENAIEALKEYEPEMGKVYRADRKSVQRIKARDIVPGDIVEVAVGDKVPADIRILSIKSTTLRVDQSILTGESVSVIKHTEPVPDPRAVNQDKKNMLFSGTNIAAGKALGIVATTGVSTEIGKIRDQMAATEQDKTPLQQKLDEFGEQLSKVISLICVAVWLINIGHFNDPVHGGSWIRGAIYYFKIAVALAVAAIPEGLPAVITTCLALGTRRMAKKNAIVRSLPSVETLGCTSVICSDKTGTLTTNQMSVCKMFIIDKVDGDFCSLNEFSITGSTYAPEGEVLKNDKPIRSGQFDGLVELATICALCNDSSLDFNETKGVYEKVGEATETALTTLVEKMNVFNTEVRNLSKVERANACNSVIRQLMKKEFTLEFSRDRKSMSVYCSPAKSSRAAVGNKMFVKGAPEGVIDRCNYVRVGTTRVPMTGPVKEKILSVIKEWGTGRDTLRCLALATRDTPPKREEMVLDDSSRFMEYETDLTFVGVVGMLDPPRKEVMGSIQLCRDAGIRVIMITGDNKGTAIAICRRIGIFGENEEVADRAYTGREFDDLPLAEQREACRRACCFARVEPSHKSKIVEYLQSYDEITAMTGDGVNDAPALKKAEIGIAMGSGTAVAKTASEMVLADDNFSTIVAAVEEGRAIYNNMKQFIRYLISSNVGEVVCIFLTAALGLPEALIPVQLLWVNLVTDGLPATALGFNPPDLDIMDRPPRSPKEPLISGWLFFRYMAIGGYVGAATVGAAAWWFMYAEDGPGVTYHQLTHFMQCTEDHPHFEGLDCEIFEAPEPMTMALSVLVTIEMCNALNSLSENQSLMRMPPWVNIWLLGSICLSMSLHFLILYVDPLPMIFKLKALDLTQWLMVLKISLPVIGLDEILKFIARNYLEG
Nature of the assay: Enzyme-coupled NADH-linked SERCA ATPase activity assay, skeletal SR vesicles. The assay is classed as biochemical, rabbit. On the procedure:
(§4) Functional assays were performed using sarcoplasmic reticulum vesicles prepared from rabbit skeletal muscle (SERCA1a) and pig cardiac muscle (SERCA2a). An enzyme-coupled, NADH-linked ATPase assay was used to measure SERCA ATPase activity in 96-well microplates. Each well contained 50 mM MOPS (pH 7.0), 100 mM KCl, 5 mM MgCl2, 1 mM EGTA, 0.2 mM NADH, 1 mM phosphoenol pyruvate, 10 IU/mL of pyruvate kinase, 10 IU/mL of lactate dehydrogenase, 1 µM of the calcium ionophore A23187 from Sigma (St. Louis, MO, USA), and CaCl2 added to set free [Ca^2+] to 10 μM [23]; 4 μg/mL of SR vesicle, calcium, compound, and assay mix were incubated for 20 min. The assay was started upon the addition of ATP, at a final concentration of 5 mM (total volume to 200 μL), and the rate of decrease in NADH absorbance at 340 nm was determined using a SpectraMax Plus microplate spectrophotometer (Molecular Devices, Sunnyvale, CA, USA).

The next assay concerns the target T3, SERCA2a (Sus scrofa, UniProt P11607).
T3 construct: rabbit skeletal muscle (SERCA1a) and pig cardiac muscle (SERCA2a); from tissue; host or cells: pig cardiac muscle sarcoplasmic reticulum vesicles
Put plainly: Enzyme-coupled NADH-linked SERCA ATPase activity assay, cardiac SR vesicles. The assay is classed as biochemical, pig. On the procedure:
as §4

Assay [3] deals with donor-only controls and donor-acceptor "null" linker constructs. Nature of the assay: Control biosensors (donor-only 1CS and donor-acceptor null linker) lifetime CRC in HEK293 cells. The assay is classed as cell-based, human. The following applies: G/R and O/M control cell lines. On the procedure: HEK293 (originally derived from human embryonic kidney) cells were maintained in phenol red-free DMEM from Gibco (Waltham, MA, USA) supplemented with 2 mM GlutaMAX (Gibco), 10% fetal bovine serum (FBS), from Atlanta Biologicals (Lawrenceville, GA, USA), and 1 IU/mL penicillin/streptomycin (Gibco) and grown at 37 °C with 5% CO2. HEK293 cell lines were used to generate stable clones overexpressing the FRET-based biosensors (containing both donor and acceptor) and corresponding donor-only and acceptor-only control cell lines. Three days prior to screening, the stable cell lines were expanded into T225 flasks from Corning Inc. (Corning, NY, USA). […] On each day of screening, cell viability was assessed using the trypan blue assay and found to be above 95% viable. […] Subcellular localization of each biosensor was evaluated using an Olympus FluoView FV1000 IX2 (Tokyo, Japan) Inverted Confocal microscope with FLIM detector. GFP and RFP signals were assessed using 473 and 561 nm laser excitation, respectively. […]
An in-depth description of the fluorescence instrumentation has previously been described in detail and can be found in our previous publication. […] Fluorescence decay waveforms (with upper-end specifications of […] resolution, 640 data points over 128 ns range) for FLT determination were detected directly as previously described, except that two different light sources were used for GFP and OFP. In both cases, fluorescence was excited with a pulsed microchip laser producing nanosecond-wide pulses. […] These filters were selected to exclude acceptor fluorescence, as only the lifetime of the donor fluorescent protein is required to calculate FRET (Equation (1)). […] The observed time-resolved fluorescence waveform was analyzed as described previously, assuming a single-exponential decay, to determine the fluorescence lifetimes (FLT) for control samples containing donor only (τD) and FRET biosensor samples containing donor plus acceptor (τDA). FRET efficiency was calculated from (1) FRET=1−(τDA/τD) […]

Where [4] appears, read: known SERCA inhibitors, concentration-response curve, live HEK293 cells, 532 nm excitation, read-out: EC50 of lifetime change, h2CS2a (O/M).
The mark [5] stands for this setting: known SERCA inhibitors, concentration-response curve, live HEK293 cells, 473 nm excitation, read-out: EC50 of lifetime change, h2CS2a (G/R).
The mark [6] stands for this setting: LOPAC hits, 16-point CRC, Hill fit, apparent EC50 for FPL 64176 (no saturation), read-out: EC50 of lifetime change, 2CS (OFP/MFP).
Where [7] appears, read: LOPAC hits, 16-point CRC, Hill fit, apparent EC50 for FPL 64176 (no saturation), read-out: EC50 of lifetime change, 2CS (GFP/RFP).
Where [8] appears, read: mean ± SD, concentration-response curve.

T3 sequence (P11607 1-997 isoform P11607-2): as the sequence (P16615 1-997 isoform P16615-2) above, with R371K, N403K, S538P, L570M, H576N, D667E, A713S, S865T, I889V, V963L counted along it

`CC(=O)C1=C(O)[C@@H]2[C@H]3c4c[nH]c5cccc(c45)C[C@H]3C(C)(C)N2C1=O` [CPA, cyclopiazonic acid]: the EC50 worked out at 0.626 µM in assay [1] (setting [4]) and 0.715 µM in assay [2] (setting [5]).
Take `COC(=O)c1c(C)[nH]c(C)c1C(=O)c1ccccc1Cc1ccccc1` [FPL 64176]: in assay [1] (16-point CRC), the “FRET (lifetime) response in CRC, 2CS (O/M)” value is “did not saturate at the highest concentrations”. Besides, the EC50 was 21.1 µM and 21 µM in assay [1] (setting [6]); 26.5 µM and 26 µM in assay [2] (setting [7]). Besides, on SERCA1a (CRC, free Ca2+ 10 μM), the “effect on Ca-dependent ATPase activity, SERCA1a” value is “biphasic ATPase activation”. Moreover, the “effect on Ca-dependent ATPase activity, SERCA2a” value at SERCA2a (CRC, free Ca2+ 10 μM) was “biphasic ATPase activation”. Moreover, at SERCA2a (cardiac versus skeletal isoform), the “ATPase activation of SERCA2a in comparison to SERCA1a (EC50 and % change)” value was “significantly more effective”. In addition, the “FRET (lifetime) response in CRC, 2CS (G/R)” value in assay [2] (16-point CRC) is recorded as “did not saturate at the highest concentrations”. Moreover, the “effect on FRET/lifetime of donor-only and null-linker controls” value (“effect on FRET/lifetime” below) in assay [3] is listed as “no significant effect on FRET”.
As to `Oc1ccc2ccccc2c1SSc1c(O)ccc2ccccc12` [IPA3], in assay [1] (non-sigmoidal CRC), the “concentration at which FRET abruptly and significantly decreased, 2CS (O/M)” value is listed as “approximately 10 μM”. Also, the IC50 worked out at 9.5 µM on SERCA1a (CRC, free Ca2+ 10 μM, read-out: apparent EC50 (IC50) of ATPase inhibition, SERCA1a) and 8 µM on SERCA2a (CRC, free Ca2+ 10 μM, read-out: apparent EC50 (IC50) of ATPase inhibition, SERCA2a). Also, the “concentration at which FRET abruptly and significantly decreased, 2CS (G/R)” value in assay [2] (non-sigmoidal CRC) is recorded as “approximately 10 μM”. Besides, the “effect on FRET/lifetime” value in assay [3] is “significant concentration-dependent changes in fluorescence lifetime”.
Regarding `c1ccc(C(NCc2cccnc2)(c2ccccc2)c2ccccc2)cc1` [UCL 2077, 3-(triphenylmethylaminomethyl)pyridine], the EC50 was 7.2 µM in assay [1] (setting [6]) and 13.8 µM in assay [2] (setting [7]). For the same compound, the “effect on Ca-dependent ATPase activity, SERCA1a” value at SERCA1a (CRC, free Ca2+ 10 μM) is given as “biphasic”. For the same compound, the “compound concentration at which ATPase activity peaked, SERCA1a” value at SERCA1a (biphasic CRC) is “around 3 micromolar”. Besides, on SERCA2a (CRC, free Ca2+ 10 μM), the “effect on Ca-dependent ATPase activity, SERCA2a” value is on record as “biphasic”. Besides, the “compound concentration at which ATPase activity peaked, SERCA2a” value at SERCA2a (biphasic CRC) is on record as “around 3 micromolar”. In addition, in assay [3], the “effect on FRET/lifetime” value is “no significant effect on FRET”.
As for `C/C=C(/C)C(=O)O[C@H]1C(C)=C2[C@H]([C@@H]1OC(=O)CCCCCCC)[C@@](C)(OC(C)=O)C[C@H](OC(=O)CCC)[C@@]1(O)[C@H]2OC(=O)[C@@]1(C)O` [thapsigargin], the results for the EC50 in assay [1] (setting [4]) and in assay [2] (setting [5]) were 0.0022 ± 0.0013 µM and 0.0044 ± 0.0012 µM, respectively. Besides, in assay [1] (setting [8]), the “lifetime change Δτ at saturating compound, h2CS2a (O/M)” value is listed as 258 ± 12 ps. Also, the “lifetime change Δτ at saturating compound, h2CS2a (G/R)” value in assay [2] (setting [8]) was 136 ± 10 ps.
